Experimental data reported in patent US20050196806A1, “Prostate specific antigen oligoepitope peptide” (The Government of the USA, as represented by the Secretary, …, priority 1996, published 2005).
≈ marks a conversion by molar mass, not a printed value. Marks after values point to notes of the source that are not given here. Residues, ends and D or L forms follow the SMILES beside them.

What was measured:
CIR-A2 cells = assay: Effects of protease inhibitors on CTL mediated killing of CIRA2 cells pulsed with PSA-OP; type: cell-based, human; conditions: Donor-1 PSA-OP CTL, 25:1 E:T ratio; for % of Specific Release (+/−SD), CIRA2 cells, No peptide: Medium 7.7 (1.9)
Description: Various target cells were labeled with 50 μCi of ^111In-oxyquinoline (Medi-Physics Inc., Arlington, Ill.) for 15 minutes at room temperature. Target cells (0.2×10^4) in 100 μl of complete medium (see below) were added to each of 96 wells in flat bottom assay plates (Corning Costar Corp.). The labeled targets were incubated with peptides at a final concentration of 50 μg/ml for 60 min at 37° C. in 5% CO2 before adding effector cells. Effector cells were suspended in 100 μl of complete medium supplemented with 5% pooled human AB serum and added to target cells. The plates were incubated at 37° C. for 16 hours. Supernatants were harvested for γ-counting using harvester frames (Skatron, Inc. Sterling, Va.). Determinations were carried out in triplicate and standard deviations were calculated. All experiments were carried out three times. Specific Lysis was calculated using the following formula: % of Specific Release=observed release(cpm)−spontaneous release(cpm) total releae(cpm)−spontaneous release(cpm)×100
[…] Peptide pulsed target cells were incubated with protease inhibitors. Protease inhibitors used were E64, carboxypeptidase inhibitor, plummer inhibitor, and captopril (angiotension converting enzyme inhibitor) at various concentrations (10^−5, 10^−6, 10^−7 M). CTL activity was determined by the CTL assay described above.

[1] = Solubility of synthesized peptide; type: physicochemical; conditions: in 1% DMSO
Description: PSA-OP was synthesized on an Applied Biosystems Model 432A peptide synthesizer. It operates on a 25 μmole scale and employs f-moc chemistry and feedback monitoring to control the coupling of each successive amino acid to the growing chain. The completed peptide is cleaved off the synthesis resin with -trifluoroacetic acid and thioanisole/ethanedithiol as scavengers. Acid salts are extracted with tert-butyl methyl ether and the peptide is lyophilized from water to give approximately 64 mg powder. The powder is soluble at 2 mg/ml in 1% DMSO and sterile-filtered aliquots show a single sharp peak on C18 reverse phase high performance liquid chromatography.

human HLA A2 molecules = target: T1, human HLA A2 molecules (Homo sapiens, UniProt P04439, D140Y/D185E/D98H/E176V/E277Q/G131W/G231S/I119V/I121R/I166T/I218V/L300P/L318F/N151K/N90K/P208A/P217A/Q86G/Q94H/R138H/R169H/T345S); assay: T2 cell binding assay (PSA peptide binding assay, Example II); conditions: peptides at 50 μg/ml, None = 127.25
T1 construct: endogenous in cells; host or cells: T2 cells (174CEM.T2)
From the text: The amino acid sequence of human PSA was scanned using a predictive algorithm that combines a search for anchor residues with numerical assignments to all residues at all positions. The T2 cell binding assay was then used to determine which peptides bound human HLA A2 molecules. […] Table 7 gives the amino acid sequence of these peptides and compares them to corresponding sequences of HGK and PKA.

[2] = target: T2, HLA class-I A2001 molecule (Homo sapiens, UniProt P04439, D140Y/D185E/D98H/E176V/E277Q/G131W/G231S/I119V/I121R/I166T/I218V/L300P/L318F/N151K/N90K/P208A/P217A/Q86G/Q94H/R138H/R169H/T345S); assay: Peptide binding to HLA-A2: upregulation on T2 cells by flow cytometry (Example IV); conditions: T2 cells incubated 24 h with peptide 50 μg/ml/10^6 cells; 100 cut off value for positivity; None = 16.88
T2 construct: endogenous in cells; host or cells: T2 cells (174CEM.T2, transport deletion mutant)
Description: 1×10^6 cells in serum-free IMDM were incubated with peptides at the concentration of 50 μg/ml in 24-well culture plates at 37° C. in 5% CO2. Flow cytometry for peptide binding was performed using T2 cells and single color analysis. After cells were washed three times in DPBS as above, they were incubated for 1 hr with HLA-A2 specific MAb A2,69 (One lambda, Inc., Canoga Park, Calif.), using 10 μl of a 1× working dilution per 10^6 cells. MOPC-21 (Cappel/Organon Teknika Corp.) was used as isotype control. The cells were then washed three times and incubated with 1:100 dilution of fluorescein (FITC) labeled anti-mouse IgG (Kirkegaard & Perry, Gaithersburg, Md.). Analysis was carried out using the FACScan as described above. Cells were maintained on ice during all cell preparation and staining unless otherwise stated.

NK target K562 = assay: Cytotoxic assay of PSA peptide specific T cells against K562; type: cell-based, human; conditions: 24 hour assay, E:T ratio 25:1
From the text: (§1) Four of the T cell lines derived from three different individuals were then assays for their ability to lyse human cells (Table 9). […] No lysis was seen using the PSA negative human colon cancer cell line COLO-205. While 80% lysis was seen using the LNCAP PSA expressing human prostate cancer cell line. When employing the NK target K562, which measures non-specific lysis due to NK cell activity, only 23% lysis was obtained. Similar results were seen employing a different T cell line obtained from the same patient which was derived from pulsing with PSA peptide 154-163. Two additional T cell lines which were derived from peptide 154-163 were also analyzed. One was from a normal donor (T-1538) and one was from a prostate cancer patient (T-PC2; T Donor C).

[3] = system: PBLs isolated from male HLA-A2001+ donors; assay: Limiting dilution analysis of CTL precursor frequency; type: cell-based, human; conditions: for Number of precursors (precursor frequency): calculated by X^2 minimization; for % of negative microcolonies, 10,000: two cycles of stimulation with the peptide, targets CIRA2 pulsed 3 h, cold K562
Description: Limiting dilution assays were used for the determination of precursor frequencies to PSA-1, PSA-3 and PSA-OP. Various number of PBMCs were seeded in 96-well flat bottom plates (Coming Costar) with 1×10^4 autologous PBMC irradiated with 4,000 rads and incubated with 50 μg/ml of PSA peptide. Cells were cultured in complete medium as described previously. At least 48 cultures were set up for each dilution. Cultures were incubated for 5 days at 37° C. in a humidified atmosphere containing 5% CO2 and then provided with fresh medium containing human IL-2 for 11 days, with IL-2-containing medium being replenished every 72 hr as shown below for CTLs generation. After two cycles of stimulation specific cytotoxic activity was tested for each single well, against CIR-A2 target cells with or without incubation with peptide. Cytotoxic assays were similar to the method described above. The unlabelled K562 cells were added to the microwells containing responder cells. After 1 hr incubation at 37° C. target cells were added into each well and incubated for 6 hrs at 37° C. Precursor frequencies were calculated by X^2 minimization.

[4] = system: LNCAP PSA expressing human prostate cancer cell line; assay: Cytotoxic assay of PSA peptide specific T cells against LNCAP (Example III); type: cell-based; conditions: 24 hour assay, E:T ratio 25:1
From the text: as §1

[5] = system: PSA negative human colon cancer cell line COLO-205; assay: Cytotoxic assay of PSA peptide specific T cells against COLO-205; type: cell-based; conditions: 24 hour assay, E:T ratio 25:1
From the text: as §1

[6] = system: PBMC from normal healthy donors expressing the HLA A2 class 1 allele; assay: Establishment of human T cell lines by pulsing PBMC with peptide and IL-2; type: cell-based; conditions: donors with T cell line / donors tested; PBMC pulsed with peptide and IL-2
From the text: Cytotoxic T-cells specific for PSA can be established from peripheral blood mononuclear cells (PBMC) obtained from a host immunized as discussed above. For example, PBMC can be separated by using Lymphocyte Separation Medium gradient (Organon Teknika, Durham, N.C., USA) as previously described [Boyum et al, Scand J. Clin Lab Invest 21:77-80 (1968)]. Washed PBMC are resuspended in a complete medium, for example, RPMI 1640 (GIBCO) supplemented with 10% pool human AB serum (Pel-Freeze Clinical System, Brown Dear, Wisc., USA), 2 mM glutamine, 100 U/ml penicillin and 100 μg/ml of streptomycin (GIBCO). PBMC at a concentration of about 2×10^5 cells in complete medium in a volume of, for example 100 μl are added into each well of a 96-well flat-bottom assay plate (Costar, Cambridge, Mass., USA). The antigen or peptides are added into the cultures in a final concentration of about 50 μg/ml and incubated at 37° C. in a humidified atmosphere containing 5% CO2 for 5 days. After removal of peptide containing media, the cultures are provided with fresh human IL-2 (10 U/ml) after 5 days and replenished with IL-2 containing medium every 3 days. Primary cultures are restimulated with the same peptide (50 μg/ml) on day 16. 5×10^5 irradiated (4,000 rad) autologous PBMC are added in a volume of about 50 μl complete medium as antigen-presenting cells (APC). […]

T2 cells = assay: Cytotoxic assay of PSA peptide specific T cells against T2 cells; type: cell-based, human; conditions: 24 hour assay, E:T ratio 25:1
[7] = T-Donor C T-cell line (prostate cancer patient)

For `C[C@H](CS)C(=O)N1CCC[C@H]1C(=O)O` [Captopril, captopril], which “% of Specific Release (+/−SD), CIRA2 cells pulsed with PSA-OP peptide [50 μg/ml]” value (CIR-A2 cells; inhibitor 10^−6 M) is on record?
Its value is 11.0 (2.6) %.

And the “% of Specific Release (+/−SD), CIRA2 cells, No peptide” value (CIR-A2 cells; inhibitor 10^−6 M)?
Its value is 15.8 (2.1) %.

Which results are given for `CC(C)C[C@H](NC(=O)[C@H]1O[C@@H]1C(=O)O)C(=O)NCCCCN=C(N)N` [E 64]?
% of Specific Release (+/−SD), CIRA2 cells pulsed with PSA-OP peptide [50 μg/ml] (CIR-A2 cells; inhibitor 10^−6 M): 13.7 (0.6) %; % of Specific Release (+/−SD), CIRA2 cells, No peptide (CIR-A2 cells; inhibitor 10^−6 M): 11.9 (1.7) %

For `CC[C@H](C)[C@H](NC(=O)[C@@H](NC(=O)[C@H](Cc1c[nH]cn1)NC(=O)[C@H](CC(C)C)NC(=O)[C@H](CC(=O)O)NC(=O)[C@@H](NC(=O)[C@H](CS)NC(=O)[C@H](CCC(N)=O)NC(=O)[C@H](CC(C)C)NC(=O)[C@H](CCCCN)NC(=O)[C@H](CCCCN)NC(=O)[C@@H]1CCCN1C(=O)[C@@H](NC(=O)[C@H](CC(C)C)NC(=O)[C@@H](N)Cc1ccccc1)[C@@H](C)O)C(C)C)C(C)C)C(=O)N[C@@H](CO)C(=O)N[C@@H](CC(N)=O)C(=O)N[C@@H](CC(=O)O)C(=O)N[C@H](C(=O)N[C@@H](CS)C(=O)N[C@@H](C)C(=O)N[C@@H](CCC(N)=O)C(=O)N[C@H](C(=O)N[C@@H](Cc1c[nH]cn1)C(=O)N1CCC[C@H]1C(=O)N[C@@H](CCC(N)=O)C(=O)N[C@@H](CCCCN)C(=O)N[C@H](C(=O)N[C@H](C(=O)N[C@@H](CCCCN)C(=O)O)[C@@H](C)O)C(C)C)C(C)C)C(C)C` [PSA-OP] (H-FLTPKKLQCVDLHVISNDVCAQVHPQKVTK-OH; N-terminus and C-terminus assumed), which solubility [1] is on record?
The solubility was 2000 µg/mL (≈ 590 µM).

With `NC(N)=NCCSCC(CS)C(=O)O` (centres unmarked) [Plummer's] as the compound, how does the “% of Specific Release (+/−SD), CIRA2 cells, No peptide” value (CIR-A2 cells; inhibitor 10^−5 M) read?
The value was 10.7 (2.0) %.

What does the source list for KLQCVDLHV [PSA 146-154, ID No. 9]?
MAb A2, 69: Mean channel fluorescent intensity (human HLA A2 molecules): 223.97; MAb A2, 69: Mean channel fluorescent intensity (human HLA A2 molecules; listed as 146-154): positive

Which “T2 binding: relative fluorescence (mean intensity) with anti-HLA-A2 mAb” value [2] does the source give for “PSA [42-51]: negative control peptide, unable to bind HLA class I-A2 [reference compound]” here?
The value was 51.44.

Which results are given for VISNDVCAQV [PSA-3, ID No. 2]?
% specific release (lysis), K562 (NK target K562; T-Donor A T-cell line): 22%; % specific release (lysis), K562 (NK target K562; T-Donor B T-cell line): 3%; % specific release (lysis), K562 (NK target K562; [7]): 2%; % of negative microcolonies, 500 ([3]; T/PSA-OP 2 donor): 100.0%; % of negative microcolonies, 1,000 ([3]; T/PSA-OP 2 donor): 100.0%; % of negative microcolonies, 5,000 ([3]; T/PSA-OP 2 donor): 97.8%; Number of precursors (precursor frequency) ([3]; T/PSA-OP 2 donor): 1/244200; % of negative microcolonies, 10,000 ([3]; T/PSA-OP 2 donor): 95.8%; % of negative microcolonies, 500 ([3]; T/PSA-OP 3 donor): 97.6%; % of negative microcolonies, 1,000 ([3]; T/PSA-OP 3 donor): 95.8%; % of negative microcolonies, 5,000 ([3]; T/PSA-OP 3 donor): 93.7%; Number of precursors (precursor frequency) ([3]; T/PSA-OP 3 donor): 1/59279; % of negative microcolonies, 10,000 ([3]; T/PSA-OP 3 donor): 89.6%; % specific release (lysis), LNCAP ([4]; T-Donor A T-cell line): 60^b %; % specific release (lysis), LNCAP ([4]; T-Donor B T-cell line): 29^b %; % specific release (lysis), LNCAP [4, 7]: 35^b %; % specific release (lysis), COLO-205 ([5]; T-Donor A T-cell line): 10%; % specific release (lysis), COLO-205 ([5]; T-Donor B T-cell line): 10%; % specific release (lysis), COLO-205 [5, 7]: 8%; T cell lines established from normal donors [6]: 6/6; % specific release (lysis), T2 (T2 cells; T-Donor A T-cell line derived with the peptide, 111In release): 16%; % specific release (lysis), T2 + peptide (T2 cells; T-Donor A T-cell line): 35^b %; % specific release (lysis), T2 (T2 cells; T-Donor B T-cell line): 10%; % specific release (lysis), T2 + peptide (T2 cells; T-Donor B T-cell line): 40^b %; % specific release (lysis), T2 (T2 cells; [7]): 15%; % specific release (lysis), T2 + peptide (T2 cells; [7]): 35^b %; T2 binding: relative fluorescence (mean intensity) with anti-HLA-A2 mAb [2]: 123.71; MAb A2, 69: Mean channel fluorescent intensity (human HLA A2 molecules; listed as 154-163): positive; MAb A2, 69: Mean channel fluorescent intensity (human HLA A2 molecules; listed as PSA 154-163): 182.30
